In US20250368628A1, “METHODS AND COMPOUNDS FOR MODULATING INHERITED GENETIC DISEASES” (Design Therapeutics, Inc., priority 2022, published 2025):

Key:
F35T cells = experiment: Foci reduction in FECD (CAG10-Cy3 FISH, foci per nucleus); format: cell-based; details: F35T cells, 48 h treatment, foci per nucleus; read-out: FECD EC50, 48 h
Summary of the method: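 Foci per nucleus were counted by imaging after overnight CAG10-Cy3 FISH at 37 °C (30% formamide, 2×SSC) with DAPI counterstain, on PFA-fixed, ethanol-permeabilized F35T cells. The cells, seeded at 5000 per well in supplemented Opti-MEM, had received 8-point compound dilutions for 48 h at 37 °C.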

[1] = test system: Myotonic Dystrophy 1 affected patient fibroblasts (Coriel GM04602; 1600 CTG repeats); experiment: DM1 foci reduction assay (EC50 assay; CAG10-Cy3 FISH, foci per nucleus); format: cell-based; details: Homo sapiens, Fibroblast; DM1 patient fibroblasts, 48 h treatment, foci per nucleus; read-out: DM1 EC50, 48 h
Summary of the method: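 Foci per nucleus counted by 20× imaging of 4 areas per well, after overnight FISH with 5 nM CAG10-Cy3 and DAPI staining of fixed, permeabilized cells. DM1 fibroblasts (GM04602, 1600 CTG) were dosed 48 h at 37 °C, 8 points, 3-fold dilutions, 3 μM top concentration.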

Row | SMILES | EC50 (F35T cells) [nM] | EC50 [1] [nM]
1 | CCCCCn1cc(NC(=O)c2nc(NC(=O)CCNC(=O)c3cc(NC(=O)c4nccn4C)cn3C)cn2C)cc1C(=O)NCCCC(=O)Nc1cn(C)c(C(=O)NCCC(=O)Nc2cc(C(=O)Nc3cn(C)c(C(=O)NCCC(=O)NCCC)n3)n(C)c2)n1 [Compound B-322] | 100 to 500 | < 100
2 | CCCCCCn1cc(NC(=O)c2nc(NC(=O)CCNC(=O)c3cc(NC(=O)c4nccn4C)cn3C)cn2C)cc1C(=O)NCCCC(=O)Nc1cn(C)c(C(=O)NCCC(=O)Nc2cc(C(=O)Nc3cn(C)c(C(=O)NCCC(=O)NCCC)n3)n(C)c2)n1 [Compound B-323] | < 100 | < 100
3 | CCCNC(=O)CCNC(=O)c1nc(NC(=O)c2cc(NC(=O)CCNC(=O)c3nc(NC(=O)CCCNC(=O)c4cc(NC(=O)c5nc(NC(=O)CCNC(=O)c6cc(NC(=O)c7nc(NC=O)cn7C)cn6C)cn5C)cn4C)cn3C)cn2C)cn1C [Compound B-324] | < 100 | 100 to 500
4 | CCCNC(=O)CCNC(=O)c1nc(NC(=O)c2cc(NC(=O)CCNC(=O)c3nc(NC(=O)CCCNC(=O)c4cc(NC(=O)c5nc(NC(=O)CCNC(=O)c6cc(NC(=O)c7nc(N=C(N)N)cn7C)cn6C)cn5C)cn4C)cn3C)cn2C)cn1C [Compound B-325] | > 1000 | 500 to 1000
5 | CCCNC(=O)CCNC(=O)c1nc(NC(=O)c2cc(NC(=O)CCNC(=O)c3nc(NC(=O)CCCNC(=O)c4cc(NC(=O)c5nc(NC(=O)CCNC(=O)c6cc(NC(=O)c7nc(N=C(N(C)C)N(C)C)cn7C)cn6C)cn5C)cn4C)cn3C)cn2C)cn1C [Compound B-326] | > 1000 | 100 to 500
6 | CCCNC(=O)c1nc(NC(=O)c2cc(NC(=O)CCNC(=O)c3nc(NC(=O)CCCNC(=O)c4cc(NC(=O)c5nc(NC(=O)CCNC(=O)c6cc(NC(=O)c7nc(NC=O)cn7C)cn6C)cn5C)cn4C)cn3C)cn2C)cn1C [Compound B-327] | < 100 | < 100
7 | CCCNC(=O)c1nc(NC(=O)c2cc(NC(=O)CCNC(=O)c3nc(NC(=O)CCCNC(=O)c4cc(NC(=O)c5nc(NC(=O)CCNC(=O)c6cc(NC(=O)c7nc(N=C(N)N)cn7C)cn6C)cn5C)cn4C)cn3C)cn2C)cn1C [Compound B-328] | 100 to 500 | 100 to 500
8 | Cn1cc(NC(=O)c2nc(NC(=O)CCNC(=O)c3cc(NC(=O)c4nccn4C)cn3C)cn2C)cc1C(=O)NCCCC(=O)Nc1cn(C)c(C(=O)NCCC(=O)Nc2cc(C(=O)Nc3cn(C)c(C(=O)NCCCOCOP(=O)(O)O)n3)n(C)c2)n1 [Compound B-332] | < 100 | 100 to 500
9 | Cn1cc(NC(=O)c2nc(NC(=O)CCNC(=O)c3cc(NC(=O)c4nccn4C)cn3C)cn2C)cc1C(=O)NCCCC(=O)Nc1cn(C)c(C(=O)NCCC(=O)Nc2cc(C(=O)Nc3cn(C)c(C(=O)NCCC(=O)NC(CO)CO)n3)n(C)c2)n1 [Compound B-333] | 100 to 500 | 500 to 1000
10 | Cn1cc(NC(=O)c2nc(NC(=O)CCNC(=O)c3cc(NC(=O)c4nccn4C)cn3C)cn2C)cc1C(=O)NCCCC(=O)Nc1cn(C)c(C(=O)NCCC(=O)Nc2cc(C(=O)Nc3cn(C)c(C(=O)NCCCNC(CO)CO)n3)n(C)c2)n1 [Compound B-335] | 100 to 500 | 100 to 500
11 | Cn1cc(NC(=O)c2nc(NC(=O)CCNC(=O)c3cc(NC(=O)c4nccn4C)cn3C)cn2C)cc1C(=O)NCCCC(=O)Nc1cn(C)c(C(=O)NCCC(=O)Nc2cc(C(=O)Nc3cn(C)c(C(=O)NCCCCCCCN)n3)n(C)c2)n1 [Compound B-337] | < 100 | 100 to 500
12 | COC(=O)c1cccc(C#CCCCN(C)CCCNC(=O)c2nc(NC(=O)c3cc(NC(=O)CCNC(=O)c4nc(NC(=O)CCCNC(=O)c5cc(NC(=O)c6nc(NC(=O)CCNC(=O)c7cc(NC(=O)c8nccn8C)cn7C)cn6C)cn5C)cn4C)cn3C)cn2C)c1 [Compound B-341] | < 100 | < 100
13 | COC(=O)c1cccc(NCCCCNC(=O)c2nc(NC(=O)c3cc(NC(=O)CCNC(=O)c4nc(NC(=O)CCCNC(=O)c5cc(NC(=O)c6nc(NC(=O)CCNC(=O)c7cc(NC(=O)c8nccn8C)cn7C)cn6C)cn5C)cn4C)cn3C)cn2C)c1 [Compound B-343] | < 100 | < 100
14 | Cn1cc(NC(=O)c2nc(NC(=O)CCNC(=O)c3cc(NC(=O)c4nccn4C)cn3C)cn2C)cc1C(=O)NCCCC(=O)Nc1cn(C)c(C(=O)NCCC(=O)Nc2cc(C(=O)Nc3cn(C)c(C(=O)NCCC(=O)N4CCC(C#CC5=CCN(C(=O)OCC6c7ccccc7-c7ccccc76)CC5)CC4)n3)n(C)c2)n1 [Compound B-345] | 500 to 1000 | > 1000
15 | Cn1cc(NC(=O)c2nc(NC(=O)CCNC(=O)c3cc(NC(=O)c4nccn4C)cn3C)cn2C)cc1C(=O)NCCCC(=O)Nc1cn(C)c(C(=O)NCCC(=O)Nc2cc(C(=O)Nc3cn(C)c(C(=O)NCCC(=O)N4CCC(C#CC5=CCNCC5)CC4)n3)n(C)c2)n1 [Compound B-346] | < 100 | 100 to 500
16 | Cn1cc(NC(=O)c2nc(NC(=O)CCNC(=O)c3cc(NC(=O)c4nccn4C)cn3C)cn2C)cc1C(=O)NCCCC(=O)Nc1cn(C)c(C(=O)NCCC(=O)Nc2cc(C(=O)Nc3cn(C)c(C(=O)NCCC(=O)N4CC=C(C#CC5CCN(C(=O)OC(C)(C)C)CC5)CC4)n3)n(C)c2)n1 [Compound B-347] | 100 to 500 | < 100
17 | Cn1cc(NC(=O)c2nc(NC(=O)CCNC(=O)c3cc(NC(=O)c4nccn4C)cn3C)cn2C)cc1C(=O)NCCCC(=O)Nc1cn(C)c(C(=O)NCCC(=O)Nc2cc(C(=O)Nc3cn(C)c(C(=O)NCCC(=O)N4CC=C(C#CC5CCNCC5)CC4)n3)n(C)c2)n1 [Compound B-348] | 100 to 500 | 500 to 1000
18 | COCCOCCOCCOCCOCCOCCC(=O)NCCCCCCn1cc(NC(=O)c2nc(NC(=O)CCNC(=O)c3cc(NC(=O)c4nccn4C)cn3C)cn2C)cc1C(=O)NCCCC(=O)Nc1cn(C)c(C(=O)NCCC(=O)Nc2cc(C(=O)Nc3cn(C)c(C(=O)NCCC(=O)N4CCC(C#CC#CC5CCN(C(=O)OC(C)(C)C)CC5)CC4)n3)n(C)c2)n1 [Compound B-351] | < 100 | > 1000
19 | CC(=O)NCCCCCCn1cc(NC(=O)c2nc(NC(=O)CCNC(=O)c3cc(NC(=O)c4nccn4C)cn3C)cn2C)cc1C(=O)NCCCC(=O)Nc1cn(C)c(C(=O)NCCC(=O)Nc2cc(C(=O)Nc3cn(C)c(C(=O)NCCC(=O)N4CCC(C#CC#CC5CCN(C(=O)OC(C)(C)C)CC5)CC4)n3)n(C)c2)n1 [Compound B-356] | 500 to 1000 | > 1000
20 | CN(CCCN)CCCNC(=O)c1cc(NC(=O)CCNC(=O)c2nc(NC(=O)CCCNC(=O)c3cc(NC(=O)c4nc(NC(=O)CCNC(=O)c5cc(NC(=O)c6nccn6C)cn5C)cn4C)cn3CCCCCCN=[N+]=[N-])cn2C)cn1C [Compound B-358] | > 1000 | > 1000
21 | CN(CCCNC(=O)c1cccc(C(=O)OC(C)(C)C)c1)CCCNC(=O)c1cc(NC(=O)CCNC(=O)c2nc(NC(=O)CCCNC(=O)c3cc(NC(=O)c4nc(NC(=O)CCNC(=O)c5cc(NC(=O)c6nccn6C)cn5C)cn4C)cn3CCCCCCN=[N+]=[N-])cn2C)cn1C [Compound B-359] | > 1000 | > 1000
22 | COC(=O)c1cccc(C#CCNCCCNC(=O)c2nc(NC(=O)c3cc(NC(=O)CCNC(=O)c4nc(NC(=O)CCCNC(=O)c5cc(NC(=O)c6nc(NC(=O)CCNC(=O)c7cc(NC(=O)c8nccn8C)cn7C)cn6C)cn5C)cn4C)cn3C)cn2C)c1 [Compound B-361] | < 100 | < 100
23 | COC(=O)c1ccc(C#CCNCCCNC(=O)c2nc(NC(=O)c3cc(NC(=O)CCNC(=O)c4nc(NC(=O)CCCNC(=O)c5cc(NC(=O)c6nc(NC(=O)CCNC(=O)c7cc(NC(=O)c8nccn8C)cn7C)cn6C)cn5C)cn4C)cn3C)cn2C)cc1 [Compound B-362] | < 100 | < 100
24 | CN(CCCNC(=O)OC(C)(C)C)CCCNC(=O)c1nc(NC(=O)c2cc(NC(=O)CCNC(=O)c3nc(NC(=O)CCCNC(=O)c4cc(NC(=O)c5nc(NC(=O)CCNC(=O)c6cc(NC(=O)c7nccn7C)cn6C)cn5C)cn4CCCCCCN=[N+]=[N-])cn3C)cn2C)cn1C [Compound B-363] | < 100 | < 100
25 | CN(CCCN)CCCNC(=O)c1nc(NC(=O)c2cc(NC(=O)CCNC(=O)c3nc(NC(=O)CCCNC(=O)c4cc(NC(=O)c5nc(NC(=O)CCNC(=O)c6cc(NC(=O)c7nccn7C)cn6C)cn5C)cn4CCCCCCN=[N+]=[N-])cn3C)cn2C)cn1C [Compound B-364] | > 1000 | 100 to 500
26 | CN(CCCNC(=O)c1cccc(C(=O)OC(C)(C)C)c1)CCCNC(=O)c1nc(NC(=O)c2cc(NC(=O)CCNC(=O)c3nc(NC(=O)CCCNC(=O)c4cc(NC(=O)c5nc(NC(=O)CCNC(=O)c6cc(NC(=O)c7nccn7C)cn6C)cn5C)cn4CCCCCCN=[N+]=[N-])cn3C)cn2C)cn1C [Compound B-365] | 100 to 500 | < 100
27 | CCCNC(=O)c1cc(NC(=O)CCNC(=O)c2nc(NC(=O)[C@H](N)CCNC(=O)c3cc(NC(=O)c4nc(NC(=O)CCNC(=O)c5cc(NC(=O)c6nccn6C)cn5C)cn4C)cn3C)cn2C)cn1C [Compound B-366] | > 1000 | > 1000
28 | CN(C)CCCNC(=O)c1cc(NC(=O)CCNC(=O)c2nc(NC(=O)[C@H](N)CCNC(=O)c3cc(NC(=O)c4nc(NC(=O)CCNC(=O)c5cc(NC(=O)c6nccn6C)cn5C)cn4C)cn3C)cn2C)cn1C [Compound B-367] | > 1000 | > 1000
29 | CN(CCCNC(=O)c1cccc(C(=O)O)c1)CCCNC(=O)c1cc(NC(=O)CCNC(=O)c2nc(NC(=O)[C@H](N)CCNC(=O)c3cc(NC(=O)c4nc(NC(=O)CCNC(=O)c5cc(NC(=O)c6nccn6C)cn5C)cn4C)cn3C)cn2C)cn1C [Compound B-368] | > 1000 | > 1000
